Where two headings read alike, the source gives them in different places. Positions of bridges follow the written chain, without caps; N, C: chain ends. Non-standard residues stand in square brackets, D forms with d. Residues, ends and D or L forms follow the SMILES beside them. Nle = CCCC[C@H](N)C(=O)O; Dab = NCC[C@H](N)C(=O)O
How the values were obtained:
[1] = test system: Frog (Rana pipiens) Skin; assay type: cell-based
Excerpt: (§1) Based upon the structural relationship of alpha-MSH (and its analogues and fragments) to its biological potency, using in vitro a frog skin bioassay system, the active site of alpha-MSH appears to be the common active core sequence suitably modified Ac-Met-Glu-His-Phe-Arg-Trp-Gly-NH₂. This fragment (Alpha-MSH₄₋₁₀) has been synthesized and tested for its melanocyte stimulating activity in frog skin and shown to be a weak agonist when compared to the native hormone. The amino acid exchanges in position 5(Glu) and 10(Gly) have not, previous to the making of the present invention, been investigated. […] The following table summarizes some of these studies.
(§2) The biological potencies of alpha-MSH, the linear, and the cyclic analogues were determined by their ability to stimulate melanosome dispersion in vitro in the frog and lizard bioassays. These in vitro assays provide clear cut dose response curves (between 2.5 x 10⁻¹¹ and 4 x 10⁻¹⁰ M) and can detect minimal concentration of alpha-MSH of about 10⁻¹¹ M. The assays are based upon the centrifugal dispersion of melanosomes (melanin granules) within the dendritic processes of integumental dermal melanophores leading to darkening of the skin. All the test solutions were prepared via serial dilutions from a stock solution (10⁻⁴ M). The frogs (Rans pipiens) used in these evaluations were obtained from Kons Scientific, Germantown, WI, and the lizards (Anolis carolinensis) were from the Snake Farm, La Place, LA.

[2] = test system: Lizard (Anolis carolinensis) Skin; assay type: cell-based
Excerpt: as §1, §2

[3] = test system: Frog (Rana pipiens) Skin; conditions: earlier studies, cited from earlier work; for Relative Potency Frog: relative to alpha-MSH = 1.0
[4] = test system: Lizard (Anolis carolinensis) Skin; conditions: relative to alpha-MSH = 1.0; earlier studies; cited from earlier work
[5] = linear analogues, P = prolonged action
[6] = linear analogues, relative to alpha-MSH = 1.0
[7] = cyclic analogues, p = prolonged action
[8] = cyclic analogues, relative to alpha-MSH = 1.0

| Molecule | Residual Activity Frog [1, 5] | Biological Potency Frog [1, 6] | Residual Activity Lizard [2, 5] | Biological Potency Lizard [2, 6] | other results |
| --- | --- | --- | --- | --- | --- |
| CCCC[C@H](NC(=O)[C@H](CO)NC(=O)[C@H](Cc1ccc(O)cc1)NC(=O)[C@H](CO)NC(C)=O)C(=O)N[C@@H](CCC(=O)O)C(=O)N[C@@H](Cc1c[nH]cn1)C(=O)N[C@H](Cc1ccccc1)C(=O)N[C@@H](CCCNC(=N)N)C(=O)N[C@@H](Cc1c[nH]c2ccccc12)C(=O)N[C@@H](CCCCN)C(=O)NCC(=O)N1CCC[C@H]1C(=O)N[C@H](C(N)=O)C(C)C [Analogue 1] (Ac-SYS[Nle]EH[dF]RWKGPV-NH2) | P(+) | 6.0 | P(-) | 8.0 | – |
| CCCC[C@H](NC(=O)[C@H](CO)NC(=O)[C@H](Cc1ccc(O)cc1)NC(=O)[C@H](CO)NC(C)=O)C(=O)N[C@@H](CC(=O)O)C(=O)N[C@@H](Cc1c[nH]cn1)C(=O)N[C@H](Cc1ccccc1)C(=O)N[C@@H](CCCNC(=N)N)C(=O)N[C@@H](Cc1c[nH]c2ccccc12)C(=O)N[C@@H](CCCCN)C(=O)NCC(=O)N1CCC[C@H]1C(=O)N[C@H](C(N)=O)C(C)C [Analogue 2] (Ac-SYS[Nle]DH[dF]RWKGPV-NH2) | P(+) | 9.0 | P(-) | 8.0 | – |
| CCCC[C@H](NC(C)=O)C(=O)N[C@@H](CCC(=O)O)C(=O)N[C@@H](Cc1c[nH]cn1)C(=O)N[C@H](Cc1ccccc1)C(=O)N[C@@H](CCCNC(=N)N)C(=O)N[C@@H](Cc1c[nH]c2ccccc12)C(=O)N[C@@H](CCCCN)C(=O)NCC(=O)N1CCC[C@H]1C(=O)N[C@H](C(N)=O)C(C)C [Analogue 3] (Ac-[Nle]EH[dF]RWKGPV-NH2) | P(+) | 0.8 | P(+) | 8.0 | – |
| CCCC[C@H](NC(C)=O)C(=O)N[C@@H](CC(=O)O)C(=O)N[C@@H](Cc1c[nH]cn1)C(=O)N[C@H](Cc1ccccc1)C(=O)N[C@@H](CCCNC(=N)N)C(=O)N[C@@H](Cc1c[nH]c2ccccc12)C(=O)N[C@@H](CCCCN)C(=O)NCC(=O)N1CCC[C@H]1C(=O)N[C@H](C(N)=O)C(C)C [Analogue 4] (Ac-[Nle]DH[dF]RWKGPV-NH2) | P(+) | 1.0 | P(+) | 10.0 | – |
| CCCC[C@H](NC(C)=O)C(=O)N[C@@H](CC(=O)O)C(=O)N[C@@H](Cc1c[nH]cn1)C(=O)N[C@H](Cc1ccccc1)C(=O)N[C@@H](CCCNC(=N)N)C(=O)N[C@@H](Cc1c[nH]c2ccccc12)C(=O)NCC(N)=O [Analogue 5] | P(-) | 0.1 | P(-) | 8.0 | – |
| CCCC[C@H](NC(C)=O)C(=O)N[C@@H](CCC(=O)O)C(=O)N[C@@H](Cc1c[nH]cn1)C(=O)N[C@H](Cc1ccccc1)C(=O)N[C@@H](CCCNC(=N)N)C(=O)N[C@@H](Cc1c[nH]c2ccccc12)C(=O)N[C@@H](CCCCN)C(N)=O [Analogue 6] | P(-) | 0.2 | P(-) | 8.0 | – |
| CCCC[C@H](NC(C)=O)C(=O)N[C@@H](CC(=O)O)C(=O)N[C@@H](Cc1c[nH]cn1)C(=O)N[C@H](Cc1ccccc1)C(=O)N[C@@H](CCCNC(=N)N)C(=O)N[C@@H](Cc1c[nH]c2ccccc12)C(=O)N[C@@H](CCCCN)C(N)=O [Analogue 7] | – | – | P(-) | 8.0 | – |
| CCCC[C@H](NC(C)=O)C(=O)N[C@@H](CCC(=O)O)C(=O)N[C@@H](Cc1c[nH]cn1)C(=O)N[C@H](Cc1ccccc1)C(=O)N[C@@H](CCCNC(=N)N)C(=O)N[C@@H](Cc1c[nH]c2ccccc12)C(=O)N[C@@H](CCCN)C(N)=O [Analogue 8] | P(-) | 0.6 | P(-) | 8.0 | – |
| CCCC[C@H](NC(C)=O)C(=O)N[C@@H](CC(=O)O)C(=O)N[C@@H](Cc1c[nH]cn1)C(=O)N[C@H](Cc1ccccc1)C(=O)N[C@@H](CCCNC(=N)N)C(=O)N[C@@H](Cc1c[nH]c2ccccc12)C(=O)N[C@@H](CCCN)C(N)=O [Analogue 9] | – | 0.9 | P(-) | 10.0 | – |
| CCCC[C@H](NC(C)=O)C(=O)N[C@@H](CCC(=O)O)C(=O)N[C@@H](Cc1c[nH]cn1)C(=O)N[C@H](Cc1ccccc1)C(=O)N[C@@H](CCCNC(=N)N)C(=O)N[C@@H](Cc1c[nH]c2ccccc12)C(=O)N[C@@H](CCN)C(N)=O [Analogue 10] (Ac-[Nle]EH[dF]RW[Dab]-NH2) | P(±) | 0.9 | P(±) | 10.0 | – |
| CCCC[C@H](NC(C)=O)C(=O)N[C@@H](CC(=O)O)C(=O)N[C@@H](Cc1c[nH]cn1)C(=O)N[C@H](Cc1ccccc1)C(=O)N[C@@H](CCCNC(=N)N)C(=O)N[C@@H](Cc1c[nH]c2ccccc12)C(=O)N[C@@H](CCN)C(N)=O [Analogue 11] | P(-) | 0.9 | P(-) | 50.0 | – |
| CCCC[C@H](NC(C)=O)C(=O)N[C@@H](CC(=O)O)C(=O)N[C@@H](Cc1c[nH]cn1)C(=O)N[C@H](Cc1ccccc1)C(=O)N[C@@H](CCCNC(=N)N)C(=O)N[C@@H](Cc1c[nH]c2ccccc12)C(=O)N[C@@H](CN)C(N)=O [Analogue 12] | P(-) | 0.2 | P(-) | 8.0 | – |
| CCCC[C@H](NC(C)=O)C(=O)N[C@@H](CCC(=O)O)C(=O)N[C@@H](Cc1c[nH]cn1)C(=O)N[C@@H](Cc1ccccc1)C(=O)N[C@@H](CCCNC(=N)N)C(=O)N[C@@H](Cc1c[nH]c2ccccc12)C(=O)N[C@@H](CCCCN)C(N)=O [Analogue 13] | P(+) | 0.001 | P(-) | 0.08 | – |
| CCCC[C@H](NC(C)=O)C(=O)N[C@@H](CC(=O)O)C(=O)N[C@@H](Cc1c[nH]cn1)C(=O)N[C@@H](Cc1ccccc1)C(=O)N[C@@H](CCCNC(=N)N)C(=O)N[C@@H](Cc1c[nH]c2ccccc12)C(=O)N[C@@H](CCCCN)C(N)=O [Analogue 14] | – | – | P(-) | 0.08 | – |
| CCCC[C@H](NC(C)=O)C(=O)N[C@H]1CCC(=O)NCCCC[C@@H](C(=O)NCC(=O)N2CCC[C@H]2C(=O)N[C@H](C(N)=O)C(C)C)NC(=O)[C@H](Cc2c[nH]c3ccccc23)NC(=O)[C@H](CCCNC(=N)N)NC(=O)[C@@H](Cc2ccccc2)NC(=O)[C@H](Cc2c[nH]cn2)NC1=O [Analogue 15] (Ac-[Nle]EH[dF]RWKGPV-NH2; lactam 2-7) | – | – | – | – | Biological Potency Frog [1]: 1.0; Residual Activity Frog [1, 7]: p(+); Biological Potency Lizard [2]: 6.0; Residual Activity Lizard [2, 7]: p(+) |
| CCCC[C@H](NC(C)=O)C(=O)N[C@H]1CCC(=O)NCCCC[C@@H](C(N)=O)NC(=O)[C@H](Cc2c[nH]c3ccccc23)NC(=O)[C@H](CCCNC(=N)N)NC(=O)[C@@H](Cc2ccccc2)NC(=O)[C@H](Cc2c[nH]cn2)NC1=O [Analogue 16] | – | – | – | – | Residual Activity Frog [1, 7]: p(+); Biological Potency Frog [1, 8]: 0.5; Residual Activity Lizard [2, 7]: p(+); Biological Potency Lizard [2, 8]: 9.0 |
| CCCC[C@H](NC(C)=O)C(=O)N[C@H]1CC(=O)NCCC[C@@H](C(N)=O)NC(=O)[C@H](Cc2c[nH]c3ccccc23)NC(=O)[C@H](CCCNC(=N)N)NC(=O)[C@@H](Cc2ccccc2)NC(=O)[C@H](Cc2c[nH]cn2)NC1=O [Analogue 18] | – | – | – | – | Residual Activity Frog [1, 7]: p(-); Biological Potency Frog [1, 8]: 1.0; Residual Activity Lizard [2, 7]: p(-); Biological Potency Lizard [2, 8]: 20.0 |
| CCCC[C@H](NC(C)=O)C(=O)N[C@H]1CC(=O)NCC[C@@H](C(N)=O)NC(=O)[C@H](Cc2c[nH]c3ccccc23)NC(=O)[C@H](CCCNC(=N)N)NC(=O)[C@@H](Cc2ccccc2)NC(=O)[C@H](Cc2c[nH]cn2)NC1=O [Analogue 19] | – | – | – | – | Residual Activity Frog [1, 7]: p(-); Biological Potency Frog [1, 8]: 1.0; Residual Activity Lizard [2, 7]: p(-); Biological Potency Lizard [2, 8]: 5.0 |
| CCCC[C@H](NC(C)=O)C(=O)N[C@H]1CC(=O)NC[C@@H](C(N)=O)NC(=O)[C@H](Cc2c[nH]c3ccccc23)NC(=O)[C@H](CCCNC(=N)N)NC(=O)[C@@H](Cc2ccccc2)NC(=O)[C@H](Cc2c[nH]cn2)NC1=O [Analogue 20] | – | – | – | – | Residual Activity Frog [1, 7]: p(-); Biological Potency Frog [1, 8]: 0.01; Residual Activity Lizard [2, 7]: p(-); Biological Potency Lizard [2, 8]: 5.0 |
| Ac-Met-Glu-His-Phe-Arg-Trp-Gly-NH₂ [Ac-alpha -MSH₄₋₁₀NH₂] | – | – | – | – | Relative Potency Frog [3]: 0.0003; melanocyte stimulating activity in frog skin ([3]; result in words, compared to the native hormone): weak agonist; Relative Potency Lizard [4]: 0.004 |
| Ac-[Nle⁴,D-Phe⁷]-alpha -MSH₁₋₁₃NH₂ | – | – | – | – | Relative Potency Frog [3]: 60.0; Relative Potency Lizard [4]: 5.0 |
| Ac-[Nle⁴,D-Phe⁷]-alpha-MSH₄₋₁₀NH₂ | – | – | – | – | Relative Potency Frog [3]: 0.02; Relative Potency Lizard [4]: 10.0 |
| Ac-[Nle⁴,D-Phe⁷]-alpha-MSH₄₋₁₁NH₂ | – | – | – | – | Relative Potency Frog [3]: 0.16; Relative Potency Lizard [4]: 8.0 |
| Ac-[Nle⁴]-alpha-MSH₄₋₁₀NH₂ | – | – | – | – | Relative Potency Frog [3]: 0.002; Relative Potency Lizard [4]: 0.06 |
